Calls of active or inactive are those of the source.
Legend:
[1] = molecular target: T1, Ubiquitin-conjugating enzyme E2 N (Homo sapiens, UniProt P61088); assay type: functional;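 further: Dose-response confirmation in a TR-FRET assay detecting UBC13-driven polyubiquitin chain formation, inhibition measured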
T1 sequence (P61088 whole entry): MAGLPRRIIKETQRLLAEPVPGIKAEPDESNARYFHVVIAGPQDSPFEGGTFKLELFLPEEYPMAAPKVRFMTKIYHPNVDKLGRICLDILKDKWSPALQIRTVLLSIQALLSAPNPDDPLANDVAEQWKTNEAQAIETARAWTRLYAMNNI

[2] = molecular target: T2, Short transient receptor potential channel 4 (Mus musculus, UniProt Q9QUQ5); experiment: mouse TRPC4 channel inhibitors, dose response, cell-based, HEK293 TRPC4/mu-opioid, Fluo-4 calcium (AID 434942); assay type: functional;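 further: potency of inhibitors blocking the TRPC4 calcium response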
T2 sequence (Q9QUQ5 whole entry): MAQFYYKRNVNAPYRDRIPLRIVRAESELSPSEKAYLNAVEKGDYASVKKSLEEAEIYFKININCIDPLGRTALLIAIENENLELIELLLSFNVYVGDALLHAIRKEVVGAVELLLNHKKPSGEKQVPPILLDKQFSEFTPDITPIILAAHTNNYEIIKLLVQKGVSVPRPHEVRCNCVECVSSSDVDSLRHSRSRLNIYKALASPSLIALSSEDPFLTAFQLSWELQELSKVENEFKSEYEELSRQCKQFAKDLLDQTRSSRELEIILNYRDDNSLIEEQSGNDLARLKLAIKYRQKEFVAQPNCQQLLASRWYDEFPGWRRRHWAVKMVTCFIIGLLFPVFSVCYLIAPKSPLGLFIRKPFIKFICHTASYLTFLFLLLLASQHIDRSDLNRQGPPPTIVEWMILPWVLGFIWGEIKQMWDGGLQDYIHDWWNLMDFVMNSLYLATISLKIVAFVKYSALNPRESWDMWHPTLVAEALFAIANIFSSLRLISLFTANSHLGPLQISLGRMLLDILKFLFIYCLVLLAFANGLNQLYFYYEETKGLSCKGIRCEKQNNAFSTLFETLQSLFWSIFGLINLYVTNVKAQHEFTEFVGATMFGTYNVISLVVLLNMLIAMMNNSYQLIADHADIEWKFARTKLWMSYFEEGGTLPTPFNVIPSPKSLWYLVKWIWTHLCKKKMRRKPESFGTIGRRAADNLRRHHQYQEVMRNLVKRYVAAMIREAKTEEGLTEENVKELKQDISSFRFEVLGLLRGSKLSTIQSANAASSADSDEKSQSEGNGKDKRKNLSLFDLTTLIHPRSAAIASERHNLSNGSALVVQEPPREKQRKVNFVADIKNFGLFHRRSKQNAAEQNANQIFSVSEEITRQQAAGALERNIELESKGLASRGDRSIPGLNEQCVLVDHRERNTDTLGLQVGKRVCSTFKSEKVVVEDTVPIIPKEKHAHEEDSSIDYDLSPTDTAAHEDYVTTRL

Cytochrome P450 3A4 = Cytochrome P450 3A4 (Homo sapiens, UniProt P08684); settings: Potency;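 further: confirmatory qHTS run detecting inhibitors and substrates of CYP3A4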
Chain of Cytochrome P450 3A4 (P08684 whole entry): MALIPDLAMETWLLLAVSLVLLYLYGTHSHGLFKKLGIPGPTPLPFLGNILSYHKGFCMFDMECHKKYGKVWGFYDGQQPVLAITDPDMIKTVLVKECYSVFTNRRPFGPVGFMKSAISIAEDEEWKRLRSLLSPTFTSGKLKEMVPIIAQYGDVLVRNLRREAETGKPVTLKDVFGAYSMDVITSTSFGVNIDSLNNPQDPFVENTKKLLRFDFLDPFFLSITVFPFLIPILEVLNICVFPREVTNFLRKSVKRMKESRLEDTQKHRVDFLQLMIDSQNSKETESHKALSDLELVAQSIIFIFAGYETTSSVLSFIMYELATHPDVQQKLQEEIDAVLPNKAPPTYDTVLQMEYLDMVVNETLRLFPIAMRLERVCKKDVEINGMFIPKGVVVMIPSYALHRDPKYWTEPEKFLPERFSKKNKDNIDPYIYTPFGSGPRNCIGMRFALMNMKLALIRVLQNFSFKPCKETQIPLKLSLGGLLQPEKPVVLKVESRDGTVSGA

Large T antigen = Large T antigen (Simian virus 40, UniProt P03070); assay type: functional, Betapolyomavirus macacae;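 further: Confirmatory-stage PubChem screen for compounds that inhibit SV40 T antigen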
Chain of Large T antigen (P03070 whole entry): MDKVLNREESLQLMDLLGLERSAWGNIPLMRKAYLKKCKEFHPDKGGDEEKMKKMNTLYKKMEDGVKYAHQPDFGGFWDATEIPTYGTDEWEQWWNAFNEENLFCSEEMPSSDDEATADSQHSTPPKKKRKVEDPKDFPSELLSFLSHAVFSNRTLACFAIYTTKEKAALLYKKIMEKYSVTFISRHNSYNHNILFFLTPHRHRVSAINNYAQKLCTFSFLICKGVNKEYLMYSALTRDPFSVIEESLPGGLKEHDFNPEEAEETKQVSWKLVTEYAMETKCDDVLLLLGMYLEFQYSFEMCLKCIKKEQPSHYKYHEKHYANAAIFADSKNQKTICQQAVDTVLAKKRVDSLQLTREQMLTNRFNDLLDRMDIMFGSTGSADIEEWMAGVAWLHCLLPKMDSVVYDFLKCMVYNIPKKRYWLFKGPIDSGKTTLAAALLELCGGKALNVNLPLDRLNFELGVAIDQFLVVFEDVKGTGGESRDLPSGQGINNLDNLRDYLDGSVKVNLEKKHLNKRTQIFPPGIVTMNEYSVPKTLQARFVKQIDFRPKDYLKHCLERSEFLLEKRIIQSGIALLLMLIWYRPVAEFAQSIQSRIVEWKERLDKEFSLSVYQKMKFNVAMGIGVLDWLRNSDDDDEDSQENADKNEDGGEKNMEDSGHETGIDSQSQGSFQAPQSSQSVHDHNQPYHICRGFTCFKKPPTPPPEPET

[3] = molecular target: FAD-linked sulfhydryl oxidase ALR (Homo sapiens, UniProt P55789); experiment: inhibitors of human ALR sulfhydryl oxidase, dose response, biochemical, H2O2 detection, luminescence, cherry-pick (AID 493248)
Chain of FAD-linked sulfhydryl oxidase ALR (P55789 whole entry): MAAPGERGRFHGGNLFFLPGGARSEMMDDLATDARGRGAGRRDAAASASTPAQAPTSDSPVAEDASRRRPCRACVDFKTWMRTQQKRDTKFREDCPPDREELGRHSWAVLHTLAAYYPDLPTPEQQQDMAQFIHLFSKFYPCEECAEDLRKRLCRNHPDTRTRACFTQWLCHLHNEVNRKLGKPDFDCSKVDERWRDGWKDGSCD

[4] = molecular target: DNA dC->dU-editing enzyme APOBEC-3A (Homo sapiens, UniProt P31941); experiment: Dose Response confirmation of small molecule APOBEC3A DNA Deaminase Inhibitors via a fluorescence-based single-stranded DNA deaminase assay. [Related pubchem assays (depositor defined):AID493011, AID493024]; assay type: functional
Chain of DNA dC->dU-editing enzyme APOBEC-3A (P31941 whole entry): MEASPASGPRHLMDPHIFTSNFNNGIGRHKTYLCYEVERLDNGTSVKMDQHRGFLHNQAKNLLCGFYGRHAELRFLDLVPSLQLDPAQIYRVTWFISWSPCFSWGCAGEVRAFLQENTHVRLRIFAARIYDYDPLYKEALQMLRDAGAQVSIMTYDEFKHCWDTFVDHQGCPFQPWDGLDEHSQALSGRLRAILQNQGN

[5] = molecular target: DNA dC->dU-editing enzyme APOBEC-3G (Homo sapiens, UniProt Q9HC16); assay type: functional;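 further: Dose-response counterscreen measuring inhibition of APOBEC3G DNA deaminase activity, run while confirming APOBEC3A inhibitors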
Chain of DNA dC->dU-editing enzyme APOBEC-3G (Q9HC16 whole entry): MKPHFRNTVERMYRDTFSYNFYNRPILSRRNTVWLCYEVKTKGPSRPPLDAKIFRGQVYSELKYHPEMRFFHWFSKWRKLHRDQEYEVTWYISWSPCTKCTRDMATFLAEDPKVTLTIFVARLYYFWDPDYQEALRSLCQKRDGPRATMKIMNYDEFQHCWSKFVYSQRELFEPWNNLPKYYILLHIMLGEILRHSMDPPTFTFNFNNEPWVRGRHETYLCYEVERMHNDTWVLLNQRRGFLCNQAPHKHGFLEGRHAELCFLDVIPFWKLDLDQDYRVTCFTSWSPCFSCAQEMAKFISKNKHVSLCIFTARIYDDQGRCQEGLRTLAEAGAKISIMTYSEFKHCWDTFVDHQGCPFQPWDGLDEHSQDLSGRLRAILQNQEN

cells = assay type: functional
[6] = molecular target: Glyceraldehyde-3-phosphate dehydrogenase (Homo sapiens, UniProt P04406)
Chain of Glyceraldehyde-3-phosphate dehydrogenase (P04406 whole entry): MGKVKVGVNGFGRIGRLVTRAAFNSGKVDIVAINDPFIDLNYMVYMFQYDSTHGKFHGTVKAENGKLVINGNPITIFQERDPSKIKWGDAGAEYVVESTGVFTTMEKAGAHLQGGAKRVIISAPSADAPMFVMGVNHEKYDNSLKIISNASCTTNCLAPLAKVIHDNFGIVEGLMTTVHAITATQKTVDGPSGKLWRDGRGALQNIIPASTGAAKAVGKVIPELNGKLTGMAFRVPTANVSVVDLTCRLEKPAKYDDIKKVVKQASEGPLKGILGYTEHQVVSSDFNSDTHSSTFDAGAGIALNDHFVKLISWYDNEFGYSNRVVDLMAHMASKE

[7] = molecular target: T3, Heat shock factor protein 1 (Mus musculus, UniProt P38532); experiment: HSF1 potentiators in luciferase reporter cells, confirmation, cell-based, NIH3T3, luminescence, dose retest (AID 435004); assay type: functional;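 further: stress induced by proteasome inhibitor MG132 added 30 min after compound; luciferase reporter driven by HSF1 response element in NIH3T3 cells; actives raise luminescence as potentiators of the MG132 stress response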
T3 sequence (P38532 whole entry): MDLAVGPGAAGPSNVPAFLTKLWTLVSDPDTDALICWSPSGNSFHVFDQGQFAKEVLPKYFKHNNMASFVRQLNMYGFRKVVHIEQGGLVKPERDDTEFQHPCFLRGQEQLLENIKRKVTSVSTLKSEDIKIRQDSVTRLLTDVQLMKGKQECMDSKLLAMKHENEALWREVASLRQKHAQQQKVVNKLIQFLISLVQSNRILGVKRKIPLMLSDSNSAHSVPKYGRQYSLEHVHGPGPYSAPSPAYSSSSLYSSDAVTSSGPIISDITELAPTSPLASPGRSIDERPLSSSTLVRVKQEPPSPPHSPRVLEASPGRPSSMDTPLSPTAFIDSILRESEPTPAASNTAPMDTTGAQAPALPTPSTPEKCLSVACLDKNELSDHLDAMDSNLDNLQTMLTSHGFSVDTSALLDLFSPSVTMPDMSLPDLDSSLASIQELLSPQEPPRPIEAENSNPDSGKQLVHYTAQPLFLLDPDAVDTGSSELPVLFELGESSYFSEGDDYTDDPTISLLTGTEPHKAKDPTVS

Question: Which IC50 [1] does the source give for `Cc1ccc2[nH]c(O)c(/N=N/C(=N)S)c2c1` here?
Answer: Its IC50 is > 20 µM (inactive).

Question: Which IC50 [1] does the source give for `CCCCCCSc1cc(-c2nc3cc(C)ccn3c2NC2CCCCC2)ccc1OC` here?
Answer: Its IC50 is > 20 µM (inactive).

Question: For `NS(=O)(=O)c1ccc(CCNCc2ccccc2OCc2ccc(F)cc2)cc1`, which EC50 [2] is on record?
Answer: The EC50 was 3.35 µM (active).

Question: With `O=C1OC(C2=CCCCC2)=NC12CC2` as the compound, how does the AC50 (Cytochrome P450 3A4) read?
Answer: Its AC50 is 5.01 µM (inconclusive).

Question: For `N#CC1=C(S)N(c2ccccc2)C(c2ccc(-c3ccc(Cl)c(Cl)c3)o2)NC1=O` (configuration not stated), which IC50 (Large T antigen) is on record?
Answer: Its IC50 is 62.7 µM (active).

Question: With `O=C(c1ccc2c(c1)OCO2)N1CCN=C1SCc1ccccc1` as the compound, how does the AC50 [3] read?
Answer: The AC50 was > 100 µM (inactive).

Question: With `CCC1=C2CC[C@H]3C(=O)N(CC)C(=O)[C@H]3[C@H]2[C@@]2(C)/C(=N/CC(=O)OC)OC(=O)N2C1=O` as the compound, how does the AC50 (Cytochrome P450 3A4) read?
Answer: The AC50 was 15.8 µM (inconclusive).

Question: With `C[C@@]12CCC(O)C[C@H]1CCC1C2CC[C@]2(C)C(=O)CCC12` (some centres not stated) as the compound, how does the AC50 (Cytochrome P450 3A4) read?
Answer: The AC50 was 15.8 µM (inconclusive).

Question: For `Clc1ccc(-c2nc3cnccn3c2NC2CCCC2)cc1`, which AC50 [3] is on record?
Answer: Its AC50 is 4.85 µM (active).

Question: For `COc1ccc(Nc2c3c(nc4ccccc24)CCCC3)cc1OC`, which AC50 [3] is on record?
Answer: Its AC50 is 0.511 µM (active).

Question: For `COc1ccccc1N1CCN(S(=O)(=O)c2ccccc2)CC1`, which AC50 [3] is on record?
Answer: Its AC50 is 7.31 µM (active).

Question: For `CC(=O)Nc1ccc(-c2ccccc2)s1`, which IC50 [4] is on record?
Answer: The IC50 was 5.3 µM (active).

Question: And the IC50 [5]?
Answer: The IC50 was 5.05 µM (active).

Question: With `CC1Cc2ccccc2N1C(=O)COC(=O)c1ccc(Cl)nc1` (configuration not stated) as the compound, how does the IC50 (cells) read?
Answer: The IC50 was 39.8 µM (active).

Question: With `O=C(O)CCC(=O)Nc1ccc(O)c(C(=O)O)c1` as the compound, how does the IC50 [6] read?
Answer: The IC50 was > 100 µM (not active).

Question: Which IC50 [6] does the source give for `O=C(CSc1nc2ccccc2s1)NO` here?
Answer: The IC50 was > 100 µM (not active).

Question: For `CN(C)c1ccc(NC(=O)c2cccc(N3C(=O)CCC3=O)c2)cc1`, which IC50 (Large T antigen) is on record?
Answer: The IC50 was 9.21 µM (active).

Question: Which AC50 (Cytochrome P450 3A4) does the source give for `COC(=O)CNC(=O)C1(CC(C)C)C=CCN1C(=O)c1ccccc1` (configuration not stated) here?
Answer: Its AC50 is 20 µM (inconclusive).

Question: For `Cc1cc(Cl)ccc1OC(C)C(=O)Nc1ccc([N+](=O)[O-])cn1` (configuration not stated), which IC50 (cells) is on record?
Answer: Its IC50 is 38 µM (active).

Question: With `O=C(Nc1ccc(Oc2ccccc2)nc1)C1CCN(Cc2ccccc2)CC1` as the compound, how does the EC50 [2] read?
Answer: The EC50 was 2.37 µM (active).

Question: Which EC50 [7] does the source give for `COC(=O)c1ccc(CSc2nc3ccccc3c(=O)n2CC(C)C)o1` here?
Answer: Its EC50 is > 260 µM (inactive).

Question: And the EC50 [2]?
Answer: Its EC50 is 3.35 µM (active).

— ChEMBL document CHEMBL1201862, “PubChem BioAssay data set” (2004)
